From the supplement of paper PMC10307832

Key:
Test in all cases: relative viability (nuclei count vs DMSO), 5 days (fraction); higher = more cells survive
17-AAG + Alpelisib = compound: C=CCNC1=C2C[C@@H](C)C[C@H](OC)[C@H](O)[C@@H](C)/C=C(\C)[C@H](OC(N)=O)[C@@H](OC)/C=C\C=C(/C)C(=O)NC(=CC1=O)C2=O [17-AAG] + Cc1nc(NC(=O)N2CCC[C@H]2C(N)=O)sc1-c1ccnc(C(C)(C)C(F)(F)F)c1 [Alpelisib] (partner 2 µM)
Method in brief: (§1)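 Relative viability is defined as nuclei in treated wells over nuclei in vehicle wells. Duplicate plates were run and medians reported. Lung cancer cell lines in 1536-well plates were dosed by pin tool one day after seeding, with one drug or with a fixed anchor-drug dose plus five library-drug doses (not always all listed) in √10 steps, and nuclei were counted after 5 days.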

17-AAG + AZD7762 = compound: C=CCNC1=C2C[C@@H](C)C[C@H](OC)[C@H](O)[C@@H](C)/C=C(\C)[C@H](OC(N)=O)[C@@H](OC)/C=C\C=C(/C)C(=O)NC(=CC1=O)C2=O [17-AAG] + NC(=O)Nc1cc(-c2cccc(F)c2)sc1C(=O)N[C@H]1CCCNC1 [AZD7762] (partner 0.2 µM)
Method in brief: as §1

17-AAG + Pictilisib = compound: C=CCNC1=C2C[C@@H](C)C[C@H](OC)[C@H](O)[C@@H](C)/C=C(\C)[C@H](OC(N)=O)[C@@H](OC)/C=C\C=C(/C)C(=O)NC(=CC1=O)C2=O [17-AAG] + CS(=O)(=O)N1CCN(Cc2cc3nc(-c4cccc5[nH]ncc45)nc(N4CCOCC4)c3s2)CC1 [Pictilisib] (partner 1 µM)
Method in brief: as §1

17-AAG + Phenformin = compound: C=CCNC1=C2C[C@@H](C)C[C@H](OC)[C@H](O)[C@@H](C)/C=C(\C)[C@H](OC(N)=O)[C@@H](OC)/C=C\C=C(/C)C(=O)NC(=CC1=O)C2=O [17-AAG] + N=C(N)NC(=N)NCCc1ccccc1 [Phenformin] (partner 250 µM)
Method in brief: as §1

Cell Line | relative viability (17-AAG + Alpelisib; first compound 0.00128 µM) | relative viability (17-AAG + Alpelisib; first compound 0.004048 µM) | relative viability (17-AAG + Alpelisib; first compound 0.0128 µM) | relative viability (17-AAG + Alpelisib; first compound 0.04048 µM) | relative viability (17-AAG + Alpelisib; first compound 0.128 µM) | relative viability (17-AAG + AZD7762; first compound 0.00128 µM) | relative viability (17-AAG + AZD7762; first compound 0.004048 µM) | relative viability (17-AAG + AZD7762; first compound 0.0128 µM) | relative viability (17-AAG + AZD7762; first compound 0.04048 µM) | relative viability (17-AAG + AZD7762; first compound 0.128 µM) | relative viability (17-AAG + Pictilisib; first compound 0.00128 µM) | relative viability (17-AAG + Pictilisib; first compound 0.004048 µM) | relative viability (17-AAG + Pictilisib; first compound 0.0128 µM) | relative viability (17-AAG + Pictilisib; first compound 0.04048 µM) | relative viability (17-AAG + Pictilisib; first compound 0.128 µM) | relative viability (17-AAG + Phenformin; first compound 0.00128 µM) | relative viability (17-AAG + Phenformin; first compound 0.004048 µM) | relative viability (17-AAG + Phenformin; first compound 0.0128 µM) | relative viability (17-AAG + Phenformin; first compound 0.04048 µM) | relative viability (17-AAG + Phenformin; first compound 0.128 µM)
201T | 1.07 | 1.03 | 0.984 | 0.943 | 0.818 | 0.626 | 0.543 | 0.459 | 0.258 | 0.261 | 0.679 | 0.667 | 0.663 | 0.546 | 0.424 | 0.484 | 0.391 | 0.341 | 0.244 | 0.248
A-427 | 1.05 | 1.15 | 1.12 | 1.1 | 0.995 | 0.819 | 0.798 | 0.618 | 0.268 | 0.234 | 0.684 | 0.737 | 0.765 | 0.748 | 0.286 | 0.353 | 0.347 | 0.374 | 0.271 | 0.167
ABC-1 | 1.05 | 1.19 | 0.691 | 0.976 | 0.919 | 0.902 | 0.726 | 0.844 | 0.835 | 0.498 | 0.794 | 0.777 | 0.829 | 0.81 | 0.651 | 0.212 | 0.261 | 0.255 | 0.246 | 0.261
BEN | 1.02 | 0.978 | 1.04 | 0.84 | 0.257 | 0.692 | 0.891 | 0.648 | 0.5 | 0.392 | 0.569 | 0.72 | 0.656 | 0.346 | 0.183 | 0.268 | 0.26 | 0.222 | 0.197 | 0.167
CAL-12T | 1.43 | 1.09 | 0.993 | 0.706 | 0.658 | 0.655 | 0.553 | 0.608 | 0.393 | 0.233 | 0.541 | 0.601 | 0.417 | 0.377 | 0.193 | 0.56 | 0.498 | 0.563 | 0.447 | 0.15
COR-L23 | 0.715 | 0.826 | 0.941 | 0.376 | 0.0924 |  |  |  |  |  | 0.703 | 0.77 | 0.789 | 0.38 | 0.083 | 0.459 | 0.438 | 0.419 | 0.269 | 0.103
COR-L 105 | 1.08 | 0.898 | 1.19 | 0.746 | 0.817 |  |  |  |  |  | 0.394 | 0.434 | 0.435 | 0.324 | 0.298 | 0.55 | 0.453 | 0.463 | 0.354 | 0.299
Calu-6 | 0.959 | 0.928 | 0.915 | 0.363 | 0.188 |  |  |  |  |  | 0.913 | 0.867 | 0.762 | 0.199 | 0.133 |  |  |  |  | 
ChaGo-K-1 |  |  |  |  |  | 0.843 | 0.871 | 0.861 | 0.449 | 0.217 | 0.759 | 0.801 | 0.7 | 0.477 | 0.26 | 0.444 | 0.587 | 0.422 | 0.273 | 0.163
EBC-1 | 0.828 | 0.197 | 0.186 | 0.159 | 0.168 |  |  |  |  |  | 0.477 | 0.157 | 0.13 | 0.185 | 0.143 |  |  |  |  | 
EKVX | 0.878 | 0.944 | 0.875 | 0.208 | 0.163 | 0.817 | 0.726 | 0.669 | 0.435 | 0.162 | 0.43 | 0.472 | 0.528 | 0.142 | 0.101 | 0.26 | 0.222 | 0.139 | 0.195 | 0.0638
EMC-BAC-2 | 0.836 | 0.761 | 0.754 | 0.813 | 0.381 | 1.17 | 1.15 | 0.735 | 0.598 | 0.287 | 0.605 | 0.598 | 0.586 | 0.274 | 0.202 | 0.576 | 0.535 | 0.427 | 0.261 | 0.189
EPLC-272H | 1.01 | 0.934 | 0.848 | 0.756 | 0.266 | 0.208 | 0.3 | 0.207 | 0.13 | 0.101 | 0.291 | 0.32 | 0.291 | 0.169 | 0.168 | 0.32 | 0.327 | 0.202 | 0.095 | 0.0918
H3255 | 0.672 | 0.716 | 0.498 | 0.26 | 0.154 | 0.876 | 1 | 0.674 | 0.252 | 0.245 | 0.424 | 0.453 | 0.463 | 0.203 | 0.154 | 0.365 | 0.368 | 0.331 | 0.234 | 0.189
HARA | 0.887 | 0.967 | 0.736 | 0.828 | 0.378 | 0.425 | 0.295 | 0.209 | 0.251 | 0.18 | 0.49 | 0.445 | 0.385 | 0.16 | 0.164 | 0.443 | 0.456 | 0.367 | 0.418 | 0.113
